Where two headings read alike, the source gives them in different places. *1 amine or outer side, *2 acyl side, *3 side chain or, on linkers, in order; H or OH if unused. Where a SMILES comes first, the peptide text is derived from it. Bridges are numbered along the chain shown (N, C = ends). [ ]: non-standard residue; d: D form. The star is where a group is joined. hPhe(3-Cl-4-CF3) = N[C@@H](CCc1ccc(C(F)(F)F)c(Cl)c1)C(=O)O; X40 = CC(C)CN([C@@H](Cc1ccc(C(F)(F)F)cc1)C(=O)[*:2])[*:1]; NPrPhe(4-CF3) = CCCN[C@@H](Cc1ccc(C(F)(F)F)cc1)C(=O)O; NMeGly(cPent) = CN[C@H](C(=O)O)C1CCCC1; NMeD = CN[C@@H](CC(=O)O)C(=O)O; NMeL = CN[C@@H](CC(C)C)C(=O)O; Morpholide = C1CN(*)CCO1; NMeA = CN[C@@H](C)C(=O)O; Ac5c = NC1(C(=O)O)CCCC1; Aze = O=C(O)[C@@H]1CCN1; Ac4c = NC1(C(=O)O)CCC1; NEtG = CCNCC(=O)O; Sar = CNCC(=O)O
How the values were obtained:
[1] = molecular target: GDP-bound KRAS wild-type protein (Homo sapiens, UniProt P01116); assay: Binding to KRAS by surface plasmon resonance (SPR), Single Cycle Kinetics; details: GDP-bound KRAS wild-type protein, read-out: KRAS KD
[2] = molecular target: GDP-bound NRAS wild-type protein (Homo sapiens, UniProt P01111); assay: Binding to NRAS by surface plasmon resonance (SPR), Single Cycle Kinetics
[3] = molecular target: GDP-bound HRAS wild-type protein (Homo sapiens, UniProt P01112); assay: Binding to HRAS by surface plasmon resonance (SPR), Single Cycle Kinetics
[4] = SPR Single Cycle Kinetics, 1:1 binding model
[5] = SPR, GDP-bound NRAS wild-type protein vs GDP-bound KRAS wild-type protein
[6] = SPR, GDP-bound HRAS wild-type protein vs GDP-bound KRAS wild-type protein

GDP-bound KRAS wild-type protein, sequence (P01116 whole entry): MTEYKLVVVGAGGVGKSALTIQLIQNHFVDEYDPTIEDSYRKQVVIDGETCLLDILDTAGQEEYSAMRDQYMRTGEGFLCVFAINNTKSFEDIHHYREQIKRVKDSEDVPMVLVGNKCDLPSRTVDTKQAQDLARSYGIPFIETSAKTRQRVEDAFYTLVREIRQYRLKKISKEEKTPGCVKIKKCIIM
GDP-bound HRAS wild-type protein, sequence (P01112 whole entry): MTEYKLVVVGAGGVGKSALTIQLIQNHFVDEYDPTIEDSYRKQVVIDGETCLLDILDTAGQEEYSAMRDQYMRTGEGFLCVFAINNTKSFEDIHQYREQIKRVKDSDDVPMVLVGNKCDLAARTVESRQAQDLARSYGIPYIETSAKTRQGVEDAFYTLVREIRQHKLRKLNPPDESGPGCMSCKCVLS
GDP-bound NRAS wild-type protein, sequence (P01111 whole entry): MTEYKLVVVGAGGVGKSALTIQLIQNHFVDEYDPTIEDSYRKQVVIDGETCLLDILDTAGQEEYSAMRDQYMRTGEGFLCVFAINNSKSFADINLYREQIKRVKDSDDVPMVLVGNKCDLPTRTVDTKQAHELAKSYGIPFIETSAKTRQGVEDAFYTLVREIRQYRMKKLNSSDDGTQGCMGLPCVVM

| Kd [1, 4] | Kd ([1]; SPR, Single Cycle Kinetics) | SMILES | NRAS/KRAS (ratio of KD value for NRAS to KD value for KRAS) [2, 5] | HRAS/KRAS (ratio of KD value for HRAS to KD value for KRAS) [3, 6] | NRAS/KRAS (ratio of KD value with respect to NRAS to KD value with respect to KRAS) [2, 5] | HRAS/KRAS (ratio of KD value with respect to HRAS to KD value with respect to KRAS) [3, 6] | NRAS/KRAS (ratio of KD value with respect to GDP-bound NRAS wild-type protein to KD value with respect to KRAS) ([2]; SPR KD ratio NRAS/KRAS, class symbols) | HRAS/KRAS (ratio of KD value with respect to GDP-bound HRAS wild-type protein to KD value with respect to KRAS) ([3]; SPR KD ratio HRAS/KRAS, class symbols) |
| --- | --- | --- | --- | --- | --- | --- | --- | --- |
|  | 0.19 nM | CCC[C@H]1C(=O)N[C@@H](C2CCCC2)C(=O)N(C)CC(=O)N(C)[C@H]2C/C=C\CCN(C2=O)[C@@H](Cc2ccc(C(F)(F)F)cc2)C(=O)N(C)CC(=O)N[C@@H](CCc2ccc(C(F)(F)F)c(Cl)c2)C(=O)N2C[C@H](OCC)C[C@H]2C(=O)NC2(CC(C)(C)C2)C(=O)N(C)[C@@H](CC(C)(C)C)C(=O)N(C)[C@H](C(=O)N(C)C)CC(=O)N1C [PP2971] | A (a compound having 10 or more and less than 20 is denoted as A) | A (a compound having 10 or more and less than 20 is denoted as A) |  |  |  |  |
| 1.8 nM |  | CCO[C@@H]1C[C@H]2C(=O)NC3(CC(C)(C)C3)C(=O)N(C)[C@@H](CC3CCC3)C(=O)N(C)[C@H](C(=O)N(C)C)CC(=O)N(C)[C@@H](COC)C(=O)N[C@@H]([C@@H](C)CC)C(=O)N(C3CC3)CC(=O)N(C)[C@H]3C/C=C\CCN(C3=O)[C@@H](Cc3ccc(C(F)(F)F)cc3)C(=O)N(C)CC(=O)N[C@@H](CCc3ccc(Cl)c(Cl)c3)C(=O)N2C1 [PP2821] |  |  |  |  | A (a compound having 10 or more and less than 20 is denoted as A) | A (a compound having 10 or more and less than 20 is denoted as A) |

Continued, compound first:

| SMILES | Kd [1, 4] | Kd ([1]; SPR, Single Cycle Kinetics) | NRAS/KRAS (ratio of KD value for NRAS to KD value for KRAS) [2, 5] | HRAS/KRAS (ratio of KD value for HRAS to KD value for KRAS) [3, 6] | NRAS/KRAS (ratio of KD value with respect to NRAS to KD value with respect to KRAS) [2, 5] | HRAS/KRAS (ratio of KD value with respect to HRAS to KD value with respect to KRAS) [3, 6] | NRAS/KRAS (ratio of KD value with respect to GDP-bound NRAS wild-type protein to KD value with respect to KRAS) ([2]; SPR KD ratio NRAS/KRAS, class symbols) | HRAS/KRAS (ratio of KD value with respect to GDP-bound HRAS wild-type protein to KD value with respect to KRAS) ([3]; SPR KD ratio HRAS/KRAS, class symbols) |
| --- | --- | --- | --- | --- | --- | --- | --- | --- |
| CC[C@H](C)[C@@H]1NC(=O)[C@H](CC(C)C)N(C)C(=O)C[C@@H](C(=O)N2CCOCC2)N(C)C(=O)[C@H](C2CCCC2)N(C)C(=O)C2(CCCC2)NC(=O)[C@@H]2CCCN2C(=O)[C@H](CCc2ccc(C(F)(F)F)c(Cl)c2)NC(=O)CN(C)C(=O)[C@H](Cc2ccc(C(F)(F)F)cc2)N(CC(C)C)C(=O)[C@@H]2CCN2C(=O)[C@H](C)N(C)C1=O [PP0107] ([NMeL]I[NMeA][Aze][X40][Sar][hPhe(3-Cl-4-CF3)]P[Ac5c][NMeGly(cPent)][NMeD]-Morpholide; lactam N-11) | 1.7 nM |  | C (A compound having a KD ratio of 0.1 or more and less than 3 is denoted as C) | C (A compound having a KD ratio of 0.1 or more and less than 3 is denoted as C) |  |  |  |  |
| CCO[C@@H]1C[C@H]2C(=O)NC3(CCC3)C(=O)N(C)[C@@H](C3CCCC3)C(=O)N(C)[C@H](C(=O)N(C)C)CC(=O)N(C)[C@@H](CC)C(=O)N[C@@H]([C@@H](C)CC)C(=O)N(C)CC(=O)N(C)[C@H]3CCCCN(C3=O)[C@@H](Cc3ccc(C(F)(F)F)cc3)C(=O)N(C)CC(=O)N[C@@H](CCc3cc(Cl)c(C(F)(F)F)c(Cl)c3)C(=O)N2C1 [PP0985] |  | 0.022 nM | C (A compound having a KD ratio of 0.1 or more and less than 3 is denoted as C) | C (A compound having a KD ratio of 0.1 or more and less than 3 is denoted as C) |  |  |  |  |
| CCO[C@@H]1C[C@H]2C(=O)NC3(CCC3)C(=O)N(C)[C@@H](C3CCCC3)C(=O)N(CC)[C@H](C(=O)N(C)C)CC(=O)N(C)[C@@H](CC)C(=O)N[C@@H]([C@@H](C)CC)C(=O)N(C)CC(=O)N(C)[C@H]3CCCCN(C3=O)[C@@H](Cc3ccc(C(F)(F)F)cc3)C(=O)N(C)CC(=O)N[C@@H](CCc3cc(F)c(C(F)(F)F)c(F)c3)C(=O)N2C1 [PP0643] | 0.074 nM |  |  |  | C (A compound having a KD ratio of 0.1 or more and less than 3 is denoted as C) | B (a compound having 3 or more and less than 10 is denoted as B) |  |  |
| CCCN1C(=O)CN(C)C(=O)CN(CC)C(=O)[C@H]([C@@H](C)CC)NC(=O)[C@H](CC(C)C)N(C)C(=O)C[C@@H](C(=O)N2CCOCC2)NC(=O)[C@H](C2CCCC2)N(C)C(=O)C2(CCC2)NC(=O)[C@@H]2CCCN2C(=O)[C@H](CCc2ccc(C(F)(F)F)c(Cl)c2)NC(=O)CN(C)C(=O)[C@@H]1Cc1ccc(C(F)(F)F)cc1 [PP0332] ([NMeL]I[NEtG][Sar][NPrPhe(4-CF3)][Sar][hPhe(3-Cl-4-CF3)]P[Ac4c][NMeGly(cPent)]D-Morpholide; lactam N-11) | 3.2 nM |  | B (a compound having 3 or more and less than 10 is denoted as B) | B (a compound having 3 or more and less than 10 is denoted as B) |  |  |  |  |
| CCO[C@@H]1C[C@H]2C(=O)NC3(CC(C)(C)C3)C(=O)N(C)[C@@H](C3CCCC3)C(=O)N(C)[C@H](C(=O)N(C)C)CC(=O)N(C)[C@@H](CC)C(=O)N[C@@H]([C@@H](C)CC)C(=O)N(C)CC(=O)N(C)[C@H]3C/C=C\CCN(C3=O)[C@@H](Cc3ccc(Cl)cc3F)C(=O)N(C)CC(=O)N[C@@H](CCc3cc(F)c(C(F)(F)F)c(F)c3)C(=O)N2C1 [PP2048] |  | 0.071 nM | A (a compound having 10 or more and less than 20 is denoted as A) | B (a compound having 3 or more and less than 10 is denoted as B) |  |  |  |  |

From US20240158446A1, “CYCLIC COMPOUND HAVING SELECTIVE INHIBITORY ACTION ON KRAS OVER HRAS AND NRAS” (CHUGAI SEIYAKU KABUSHIKI KAISHA, priority 2021, published 2024)
